Assay results: patent US4410546A, “Antiallergic compositions” (Hisamitsu Pharmaceutical Co., Inc., priority 1981, dated 1983)
Read-outs that look alike come from different tables or passages of the source.

Columns and labels:
mesenteric mast cells = test: Test for the degranulation of mesenteric mast cells in rats; type: cell-based, rat; conditions: 10^-4 g/ml; induced by 5×10^-6 g/ml DNP-As
Experimental: Rats were passively sensitized at their abdominal cavity by anti-DNP-As rat serum, 24 hours after which the mesenterium of the rats was enucleated. Then, 100 mg of the mesenterium were accurately weighed out, immersed in Tyrode's solution and preincubated at 37° C. for 5 minutes. Thereafter, the immersed solution was added to the antiallergic compounds of the formula (I) suspended in saline solution containing 0.5% of tragacanth gum, incubated at 37° C. for 20 minutes and then induced by 5×10^-6 g/ml of DNP-As. After 20 minutes' incubation, the solution was chilled in ice, and the mesenterium so reacted was dyed by the use of formalin (10% formaldehyde content) and an 0.1% tolwdine blue solution containing 0.1% of acetic acid, treated with ethanol and xylene and measured for degranulation by mirror inspection ([…]).

Acute toxicity test = conditions: mouse, in vivo; oral, mice, death in 3 weeks
Experimental: The compounds (of the formula (I)) to be tested were each suspended in a saline solution containing 0.5% of tragacanth gum and then orally administered to 6 ddY strain mice in a group, each mouse weighing 20-25 g. LD50 values were calculated from the death of mice in 3 weeks following the administration.

[1] = tested on: homologous passive cutaneous anaphylaxis; test: Homologous passive cutaneous anaphylaxis (Homolog. PCA) in rats; type: in vivo, rat (male Wistar strain); conditions: 200 mg/kg oral, 2 hours prior to antigen; for inhibition at 200 mg/kg: Rattus norvegicus
Source text: In accordance with the experimental method of Tada, T et al (J. Immunol., 106, 1002, 1971), a homologous passive cutaneous anaphylaxis (Homolog. PCA) reaction test was made on male Wistar strain rats, each weighing 160-170 g. In this test, DNP-As (Dinitrophenol coupled Ascaris suum extract) was obtained by reacting dinitrophenol (DNP) with protein extracted from Ascaris suum and was used as the antigen. Anti-DNP-As rats serum was prepaed using said antigen and was used as the antibody. […] After the lapse of 48 hours, the test animals were each given 1.0 ml of the antigen solution (2.0 mg as the amount of protein) containing 0.25% Evans blue by intravenous injection thereinto. Thirty (30) minutes later, they were sacrificed by exsanguination and their skins were peeled to measure the area of PCA blueing lesion. The amounts of dye extravasated were each measured in accordance with the method proposed by Harada, M. et al (J. Pharm. Pharmacol., 23, 218, 1971).
The compounds of the formula (I) were orally administered at a dose of 200 mg/kg to the rats two hours prior to the administration of the antigen thereto.

[2] = tested on: reversed cutaneous anaphylaxis; test: Reversed cutaneous anaphylaxis test on rats; type: in vivo, rat (male Wistar strain); conditions: 100 mg/kg oral, one hour prior to anti-rat rabbit serum; for inhibition at 100 mg/kg: 1 h, read-out: Inhibition rate
Experimental: In accordance with Yamazaki et al's method (Folia Pharmacol. Jap. 60, .sctn.65, 1964) obtained by improving Ungar et al's method (Arch. intern. Pharmacodyn. 123, 71, 1959), male Wistar strain rats, each weighing about 100 g, were tested as follows.
First of all, anti-rat rabbit serum was dissolved in such an amount in an 0.5% solution of Evans blue as to obtain a 15% solution of the serum. The thus obtained serum solution was injected intradermally in an 0.05 ml dose into each of 2 sites on one side of the back of each of the rats, while an 0.5% solution of Evans blue in saline solution was also injected similarly in an 0.05 ml dose into each of 2 sites on one side of the back thereof. Two hours later, the test animals were sacrificed and their skins were peeled. The skins so peeled were punched as the indication of the Evans blue spot to separate the edema (swollen) portions thereof which were then measured for their weights.
The strength of intumescence was calculated from the following formula: [formula] wherein Wi is the weight of the inflammatory portion and Ws is the weight of the control portion.
The antiallergic compounds of the formula (I) according to this invention were orally administered at a dose of 100 mg/kg to the rats one hour prior to the injection of the anti-rat rabbit serum.

[3] = tested on: lung fragment of guinea pigs; test: Histamine release on lung fragment of guinea pigs; type: cell-based, guinea pig; conditions: sodium salt, induced by ovalbumin 10^-6 g/ml
Experimental: The lungs of guinea pigs sensitized actively by ovalbumin were thoroughly irrigated by Tyrode's solution and then cut to obtain about 1-2 mm thick pieces. Two hundred (200) mg of the thus obtained fragments were accurately weighed out, immersed in Tyrode's solution and preincubated at 37° C. for 5 minutes. Then, the compounds of the formula (I) were each suspended in saline solution containing 0.5% of tragacanth gum, incubated at 37° C. for 20 minutes and induced by 10^-6 g/ml of ovalbumin.
Following 20 minutes' incubation, the siolutin was chilled in ice and then measured for the amount of released histamine in the medium and remaining in the tissue by the use of fluorometric assay in accordance with the Shore et al's method (J. Pharmacol. exp. Ther. 127, 182, 1959).

[4] = amount of dye, read-out: Inhibition rate (amount of dye extravasated)
[5] = area, read-out: Inhibition rate (area of dye extravasated)

Row | SMILES | Degranulation rate (mesenteric mast cells) [%] | LD50 at 504 h (Acute toxicity test) [mg/kg] | Amount of dye extravasated [1] [μg/site] | Area of dye extravasated [1] [mm^2] | inhibition at 200 mg/kg [1, 4] [%] | inhibition at 200 mg/kg [1, 5] [%] | Intumescence rate [2] [%] | inhibition at 100 mg/kg [2] [%] | Inhibition rate (histamine release) ([3]; Conc.: 10^-4 g/ml) [%] | Inhibition rate (histamine release) ([3]; Conc.: 10^-5 g/ml) [%]
1 | CCCC[C@H]1CC[C@H](C(=O)O)CC1 [Compound 1, trans-4-n-butylcyclohexanecarboxylic acid] | 71.45 ± 5.85 | > 2000 | 5.17 ± 0.32 | 76.87 ± 2.68 | 64 | 22.4 | 29.81 ± 7.17 | 30 | 83.9 | 9.2
2 | CCCCC[C@H]1CC[C@H](C(=O)O)CC1 [Compound 2, trans-4-n-pentylcyclohexanecarboxylic acid] | 74.96 ± 2.91 | > 2000 | 2.49 ± 0.29 | 67.20 ± 2.57 | 82.7 | 32.2 | 25.00 ± 2.77 | 41.3 | 92.2 | 83.4
